# Laboratory results published in patent US20160153002A1, “METHOD FOR CELL MEMBRANE PERMEATION FOR COMPOUND” (HitGen LTD., priority 2013, published 2016).
# {NH2C12} = amino-(CH2)12 linker attached through a phosphate; {FITC} = fluorescein (FITC) label
# Test system: HepG2 cells
# Assay: Transmembrane transfer of FITC-tagged single-stranded or double-stranded DNA/RNA with X-tremeGENEsiRNA reagent, laser confocal microscopy
# Assay type: cell-based
# Settings: 4 nmol, 6 h, laser confocal microscope, FIG. 5
# Method: 24 h before transfer, the HepG2 cells in the phase of logarithmic growth were digested with trypsin; a culture medium containing 10% serum was used for adjusting the cell density to 0.5×10^6 cells/mL; and the cells were inoculated again in a cell culture dish of 15 cm and cultured in a culture incubator containing 5% CO2 at 37° C. The cells may be used for experiments when the cell density reaches 60% to 70% 24 h later.
# 4 nmol of synthesized single-stranded or double-stranded DNA/RNA fragments in different sequences was added to a sterile centrifuge tube (tube A) of 15 mL, respectively, and uniformly mixed with Opti-MEM in a corresponding volume, with a total volume of 2 mL; the X-tremeGENEsiRNA reagent was shaken gently, and 160 μL of X-tremeGENEsiRNA reagent was mixed with 1.84 mL of Opti-MEM in another tube (tube B); and the solution in the tube A was mixed with the solution in the tube B, the mixture was slightly triturated by a pipette and incubated for 20 min at room temperature.
# 6 mL of RPMI-1640 serum-free culture medium was added to the mixture and mixed uniformly; the primary culture medium in the HepG2 cell culture dish was discarded, and slightly triturated with RPMI-1640 serum-free culture medium once; and then, the mixture was moved into the HepG2-PT cell culture dish, and cultured in a culture incubator containing 5% CO2 at 37° C. 6 h later, the positioning of the DNA/RNA in the cells was observed by a laser confocal microscope.
row,Substance,positioning of the DNA/RNA in the cells (transfer into cells)
1,5′-NH2—(CH2)12—PO4-A3-3′-FITC [polyA of 38 bp],"transferred into cells by X-tremesiRNA, with most of them into the cytoplasm and a few of them into the cell nucleus"
2,5′-NH2—(CH2)12—PO4-A5-3′-FITC [polyA of 5 bp],"transferred into cells by X-tremesiRNA, with most of them into the cytoplasm and a few of them into the cell nucleus"
3,5′-NH2—(CH2)12—PO4-A19-3′-FITC [polyA of 19 bp],"transferred into cells by X-tremesiRNA, with most of them into the cytoplasm and a few of them into the cell nucleus"
4,"5′-NH2—(CH2)12—PO4-TGGGCTGGCCAAACTGCTG-3′-FITC (DNA, 5' {NH2C12}, 3' {FITC}, backbone and methylation of C not given here)","transferred into cells by X-tremesiRNA, with most of them into the cytoplasm and a few of them into the cell nucleus"
5,double-stranded random sequence fragments of 19 bp: duplex of 5′-NH2-(CH2)12-PO4-TGGGCTGGCCAAACTGCTG-3′-FITC with 3′-ACCCGACCGGTTTGACGAC-5′,"transferred into cells by X-tremesiRNA, with most of them into the cytoplasm and a few of them into the cell nucleus"
